# Experimental data reported in patent publication US7488834B2, “Organic semiconductors” (Alcatel-Lucent USA Inc., priority 2005, dated 2009).
# Experiments:
# [1] = Solubility in organic solvents; assay type: physicochemical
# Procedure: Before fabricating the FETs, the solubility of the two semiconductor compositions in tetrahydrofuran (THF) was determined.
# [2] = Solubility in organic solvents; assay type: physicochemical; remark: listed apart in the source
# [3] = Viscosity of formulation or solution; assay type: physicochemical; conditions: c = 500 ppm, cyclohexanol/THFA/THF = 86:9:5
melting point [°C],Structure (SMILES),solubility in THF ([1]; THF),further results
–,"CC(CO)COc1ccc(-c2ccc(-c3ccc(-c4ccc(OCC(C)CO)cc4)s3)s2)cc1 (stereo not shown) [3(3OH,2Me)-O-PTTP-O-3(3OH,2Me), 3-(4-{5′-[4-(3-Hydroxy-2-methyl-propoxy)-phenyl]-[2,2′]bithiophenyl-5-yl}-phenoxy)-2-methyl-propan-1-ol]",Low solubility in THF(600 ppm),–
–,"CC(COc1ccc(-c2ccc(-c3ccc(-c4ccc(OCC(C)COC5CCCCO5)cc4)s3)s2)cc1)COC1CCCCO1 (stereo not shown) [3(3THPO,2Me)-O-PTTP-O-3(THPO,2Me), 5,5′-Bis-[4-(2-methyl-propoxy-tetrahydro-pyran)-phenoxy]-[2,2′]bithiophenyl]","Well soluble in THF(about 75,000 ppm)",–
–,"CCCOCCc1ccc(-c2ccc(-c3ccc(-c4ccc(CCOCCC)cc4)s3)s2)cc1 [3O2PTTP2O3, 5,5′-Bis(4-(propxyethyl)phenyl)-2,2′-bithiophene]",–,solubility (in words) ([1]; compared with 6PTTP6): Solubility like6PTTP6
–,"CCC(CC)COc1ccc(-c2ccc(-c3ccc(-c4ccc(OCC(CC)CC)cc4)s3)s2)cc1 [4(2Et)-O-PTTP-O-4(2Et), 5,5′-bis(4-(2-ethylbutyloxy)phenyl)-2,2′-bithiophene]","solubility in THF about4,900 ppm",–
250,"CC(C)CCCOc1ccc(-c2ccc(-c3ccc(-c4ccc(OCCCC(C)C)cc4)s3)s2)cc1 [5(4Me)-O-PTTP-O-5(4Me), 5,5′-bis(4-(4-methylpentyloxy)phenyl)-2,2′-bithiophene]","solubility in THF about5400 ppm. DSC: mp =250° C., smaller transitionaround 173 °C (couldbe LC)",–
97 to 102,"CCCCCC(CC)Oc1ccc(-c2ccc(-c3ccc(-c4ccc(OC(CC)CCCCC)cc4)s3)s2)cc1 (stereo not shown) [6(1Et)-O-PTTP-O-6(1Et), 5,5′-Bis-[4-(1-ethyl-hexyloxy)-phenyl]-[2,2′]bithiophenyl]","Well soluble in THF(about 330,000 ppm)DSC: mp = 97-102° C.,(broad transition)",–
143,"CCCCCC(C)Oc1ccc(-c2ccc(-c3ccc(-c4ccc(OC(C)CCCCC)cc4)s3)s2)cc1 (stereo not shown) [6(1Me)-O-PTTP-O-6(1Me), 5,5′bis(4-(1-methylhexyloxy)phenyl)-2,2′-bithiophene]",–,"solubility in THF relative to 7(2Me)-PTTP-7(2Me) ([1]; THF): approximately twice; solubility in 2-Ethylhexanol ([2]; 2-Ethylhexanol): ~800 ppm; solubility in THF/cyclohexanol 2:8 ([2]; THF/cyclohexanol 2:8 (viscosity 9 mPas)): 4,000 ppm; solubility in o-xylene [2]: 54,000 ppm"
148,"CCCCC(CC)COc1ccc(-c2ccc(-c3ccc(-c4ccc(OCC(CC)CCCC)cc4)s3)s2)cc1 (stereo not shown) [6(2Et)-O-PTTP-O-6(2Et), 5,5′-bis(4-(2-ethylhexyloxy)phenyl)-2,2′-bithiophene]","~70,000 ppm","viscosity η of formulation [3]: 22 mPas; solubility in o-xylene [2]: ~25,000 ppm"
197,"CCCCC(C)COc1ccc(-c2ccc(-c3ccc(-c4ccc(OCC(C)CCCC)cc4)s3)s2)cc1 (stereo not shown) [6(2Me)-O-PTTP-O-6(2Me), 5,5′-bis(4-(2-methylhexyloxy)phenyl)-2,2′-bithiophene]","sufficiently soluble in THF(about 61,000 ppm)DSC: mp = 197 °C",–
–,"CC(C)(C)[Si](OCCCCCCOc1ccc(-c2ccc(-c3ccc(-c4ccc(OCCCCCCO[Si](c5ccccc5)(c5ccccc5)C(C)(C)C)cc4)s3)s2)cc1)(c1ccccc1)c1ccccc1 [6(6TBDPSO)-O-PTTP-O-6(6TBDPSO), 5,5′-Bis-{4-[6-(tert-butyl-diphenyl-silanyloxy)-hexyloxy]-phenyl}-[2,2′]bithiophenyl]","Well soluble in THF(about 310,000 ppm);",–
243,"CCCCCCOc1ccc(-c2ccc(-c3ccc(-c4ccc(OCCCCCC)cc4)s3)s2)cc1 [6-O-PTTP-O-6, 5,5′-bis(4-hexyloxyphenyl)-2,2′-bithiophene]","solubility in THF about600 ppm, lowest value byfar. Differential scanningcalorimetry (“DSC”);melting point = 243° C.,smaller transitions at 65,148, 176, 255, 261° C.(doastereomers or LC)",–
–,"C=CC(C=C)OC(=O)CCCCCOc1ccc(-c2ccc(-c3ccc(-c4ccc(OCCCCCC(=O)OC(C=C)C=C)cc4)s3)s2)cc1 [6-[4-(5′-[5-(1-Vinyl-allyloxycarbonyl)-pentyloxy]-phenyl}-[2,2′]bithiophenyl-5-yl)-phenoxy]-hexanoic acid 1-vinyl-allyl ester]","well soluble in THF(131,000 ppm)",–
192,"CC(C)CCCC(C)CCOc1ccc(-c2ccc(-c3ccc(-c4ccc(OCCC(C)CCCC(C)C)cc4)s3)s2)cc1 (stereo not shown) [8(3,7Me)-O-PTTP-O-8(3,7Me), 5,5′-bis(4-(3,7-dimethyloctyloxy)phenyl)-2,2′-bithiophene]","solubility in THF about12,000 ppmDCS: mp = 192° C., smallertransition at 143° C.(diastereomer or LC)",–
